Measurements: ChEMBL document CHEMBL4364246, “Synthesis and biological evaluation of 5-aminoethyl benzophenanthridone derivatives as DNA topoisomerase IB inhibitors” (Eur J Med Chem, 2019)

Key:
TK-10 = assay: Growth inhibition of human TK10 cells incubated for 48 hrs by sulforhodamine B assay; format: functional; details: TK-10, 48 h
HT-29 = assay: Growth inhibition of human HT-29 cells incubated for 48 hrs by sulforhodamine B assay; format: functional; details: HT-29, 48 h
SK-MEL-28 = assay: Growth inhibition of human SK-MEL-28 cells incubated for 48 hrs by sulforhodamine B assay; format: functional; details: SK-MEL-28, 48 h
SK-OV-3 = assay: Growth inhibition of human SKOV3 cells incubated for 48 hrs by sulforhodamine B assay; format: functional; details: SK-OV-3, 48 h
[1] = target: T1, DNA topoisomerase 1 (Homo sapiens) (UniProt P11387); assay: Inhibition of recombinant TOP1 (unknown origin) using 3'-[32P]-labeled 117 bp DNA oligonucleotide assessed as TOP1-mediated DNA cleavage by measuring induction and stabilization of cleavage sites 17, 35 and 79 incubated for 20 mins by PAGE analysis
T1 sequence (whole entry): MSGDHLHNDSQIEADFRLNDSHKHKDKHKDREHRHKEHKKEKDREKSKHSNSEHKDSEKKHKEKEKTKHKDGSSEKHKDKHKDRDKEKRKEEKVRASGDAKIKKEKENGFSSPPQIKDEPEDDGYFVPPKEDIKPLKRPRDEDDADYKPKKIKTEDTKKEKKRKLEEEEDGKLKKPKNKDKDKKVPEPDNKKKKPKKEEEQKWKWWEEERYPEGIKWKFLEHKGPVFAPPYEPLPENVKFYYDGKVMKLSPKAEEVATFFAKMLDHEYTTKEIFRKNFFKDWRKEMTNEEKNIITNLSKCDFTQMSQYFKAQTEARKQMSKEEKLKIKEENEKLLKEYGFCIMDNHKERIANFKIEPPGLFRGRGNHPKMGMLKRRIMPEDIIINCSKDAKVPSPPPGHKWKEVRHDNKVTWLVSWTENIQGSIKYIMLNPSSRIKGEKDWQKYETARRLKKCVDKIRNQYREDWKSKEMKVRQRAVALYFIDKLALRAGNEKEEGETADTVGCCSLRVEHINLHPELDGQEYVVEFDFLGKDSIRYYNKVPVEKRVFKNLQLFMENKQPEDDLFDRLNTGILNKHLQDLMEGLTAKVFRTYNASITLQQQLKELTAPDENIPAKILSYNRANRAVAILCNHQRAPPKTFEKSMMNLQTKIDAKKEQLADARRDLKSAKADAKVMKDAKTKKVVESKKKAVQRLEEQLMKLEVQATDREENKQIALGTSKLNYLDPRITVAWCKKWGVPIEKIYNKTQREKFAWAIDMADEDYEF

[2] = Acute toxicity in Kunming mouse assessed as mortality at 300 mg/kg, ip administrated as single dose measured within 5 days after drug administration; format: organism-based; details: in vivo, 120 h
MCF7 [3] = assay: cells; details: Homo sapiens, MCF7, 72 h
[4] = target: T1, DNA topoisomerase 1 (Homo sapiens); assay: Inhibition of recombinant TOP1 (unknown origin) using 3'-[32P]-labeled 117 bp DNA oligonucleotide assessed as […] TOP1-mediated DNA cleavage incubated for 20 mins by PAGE analysis relative to 1 uM CPT
HCT-116 [5] = assay: cells; details: Homo sapiens, HCT-116, 72 h
SR = assay: Growth inhibition of human SR cells incubated for 48 hrs by sulforhodamine B assay; format: functional
HCT-116 [6] = assay: Antitumour activity against human HCT116 cells xenografted in athymic nude nu/nu mouse assessed as inhibition in tumor weight at 20 mg/kg administrated daily by caliper method relative to control; format: functional
HCT-116 [7] = assay: Antitumour activity against human HCT116 cells xenografted in athymic nude nu/nu mouse assessed as inhibition in tumor weight at 5 mg/kg administrated daily by caliper method relative to control; format: functional
KM12 = assay: Growth inhibition of human KM12 cells incubated for 48 hrs by sulforhodamine B assay; format: functional; details: KM12, 48 h
UO-31 = assay: Growth inhibition of human UO31 cells incubated for 48 hrs by sulforhodamine B assay; format: functional; details: UO-31, 48 h
OVCAR-3 = assay: Growth inhibition of human OVCAR3 cells incubated for 48 hrs by sulforhodamine B assay; format: functional; details: OVCAR-3, 48 h
CCRF-CEM = assay: Growth inhibition of human CCRF-CEM cells incubated for 48 hrs by sulforhodamine B assay; format: functional
OVCAR-8 = assay: Growth inhibition of human OVCAR8 cells incubated for 48 hrs by sulforhodamine B assay; format: functional; details: OVCAR-8, 48 h
OVCAR-5 = assay: Growth inhibition of human OVCAR5 cells incubated for 48 hrs by sulforhodamine B assay; format: functional; details: OVCAR-5, 48 h
HOP-92 = assay: Growth inhibition of human HOP92 cells incubated for 48 hrs by sulforhodamine B assay; format: functional; details: HOP-92, 48 h
DU-145 [8] = assay: Growth inhibition of human DU145 cells incubated for 48 hrs by sulforhodamine B assay; format: functional; details: DU-145, 48 h
HCT-116 [9] = assay: Induction of apoptosis in human HCT116 cells assessed as increase in apoptotic cells incubated for 24 hrs by FITC and PI staining based flow cytometric analysis; format: functional, cell-based
MCF7 [10] = assay: Antitumour activity against human MCF7 cells xenografted in athymic nude nu/nu mouse assessed as inhibition in tumor weight at 10 mg/kg administrated daily by caliper method relative to control; format: functional
SK-MEL-5 = assay: Growth inhibition of human SK-MEL-5 cells incubated for 48 hrs by sulforhodamine B assay; format: functional; details: SK-MEL-5, 48 h
MDA-MB-468 = assay: Growth inhibition of human MDA-MB-468 cells incubated for 48 hrs by sulforhodamine B assay; format: functional; details: MDA-MB-468, 48 h
LOX IMVI = assay: Growth inhibition of human LOXIMVI cells incubated for 48 hrs by sulforhodamine B assay; format: functional
NCI-H226 = assay: Growth inhibition of human NCI-H226 cells incubated for 48 hrs by sulforhodamine B assay; format: functional; details: NCI-H226, 48 h
MCF7 [11] = assay: Growth inhibition of human MCF7 cells incubated for 48 hrs by sulforhodamine B assay; format: functional; details: MCF7, 48 h
SNB-75 = assay: Growth inhibition of human SNB75 cells incubated for 48 hrs by sulforhodamine B assay; format: functional; details: SNB-75, 48 h
SN12C = assay: Growth inhibition of human SN12C cells incubated for 48 hrs by sulforhodamine B assay; format: functional
PC-3 = assay: Growth inhibition of human PC3 cells incubated for 48 hrs by sulforhodamine B assay; format: functional; details: PC-3, 48 h
DU-145 [12] = assay: cells; details: Homo sapiens, DU-145, 72 h
MOLT-4 = assay: Growth inhibition of human MOLT4 cells incubated for 48 hrs by sulforhodamine B assay; format: functional; details: MOLT-4, 48 h
HCT-15 = assay: Growth inhibition of human HCT15 cells incubated for 48 hrs by sulforhodamine B assay; format: functional; details: HCT-15, 48 h
UACC-257 = assay: Growth inhibition of human UACC257 cells incubated for 48 hrs by sulforhodamine B assay; format: functional; details: UACC-257, 48 h

Compound: CNCCn1c(=O)c2cc(OC)c(OC)cc2c2ccc3cc4c(cc3c21)OCO4
- GI50 (TK-10): 316 nM
- GI50 (HT-29): 50.8 nM
- GI50 (SK-MEL-28): 573 nM
- GI50 (SK-OV-3): 157 nM
- Activity [1]: Dose-dependent effect
- Activity [2]: Toxic
- GI50 (MCF7 [3]): 90 nM
- inhibition [4]: 75 to 95%
- GI50 (HCT-116 [5]): 36 nM
- GI50 (SR): 17.3 nM
- inhibition in vivo at 20 mg/kg (HCT-116 [6]): 76.9%
- inhibition in vivo at 5 mg/kg (HCT-116 [7]): 49.3%
- GI50 (KM12): 238 nM
- GI50 (UO-31): 104 nM
- GI50 (OVCAR-3): 166 nM
- GI50 (CCRF-CEM): 20.1 nM
- GI50 (OVCAR-8): 132 nM
- GI50 (OVCAR-5): 183 nM
- GI50 (HOP-92): 184 nM
- GI50 (DU-145 [8]): 130 nM
- Activity (HCT-116 [9]): Dose-dependent effect
- inhibition in vivo at 10 mg/kg (MCF7 [10]): 56.9%
- GI50 (SK-MEL-5): 90.9 nM
- GI50 (MDA-MB-468): 59.9 nM
- GI50 (LOX IMVI): 38.9 nM
- GI50 (NCI-H226): 172 nM
- GI50 (MCF7 [11]): 29.2 nM
- GI50 (SNB-75): 88.5 nM
- GI50 (SN12C): 171 nM
- GI50 (PC-3): 112 nM
- GI50 (DU-145 [12]): 2 nM
- GI50 (MOLT-4): 23.4 nM
- GI50 (HCT-15): 116 nM
- GI50 (UACC-257): 122 nM

Compound: COc1cc2c(=O)n(CCN)c3c4cc5c(cc4ccc3c2cc1OC)OCO5
- GI50 (TK-10): 1350 nM
- GI50 (HT-29): 168 nM
- GI50 (SK-MEL-28): 3050 nM
- GI50 (SK-OV-3): 1240 nM
- Activity [1]: Dose-dependent effect
- GI50 (MCF7 [3]): 100 nM
- inhibition [4]: 50 to 75%
- GI50 (HCT-116 [5]): 290 nM
- GI50 (SR): 90.7 nM
- GI50 (KM12): 1100 nM
- GI50 (UO-31): 350 nM
- GI50 (OVCAR-3): 826 nM
- GI50 (CCRF-CEM): 150 nM
- GI50 (OVCAR-8): 930 nM
- GI50 (OVCAR-5): 1200 nM
- GI50 (HOP-92): 3560 nM
- GI50 (DU-145 [8]): 527 nM
- GI50 (SK-MEL-5): 614 nM
- GI50 (MDA-MB-468): 157 nM
- GI50 (LOX IMVI): 246 nM
- GI50 (NCI-H226): 1340 nM
- GI50 (MCF7 [11]): 164 nM
- GI50 (SNB-75): 596 nM
- GI50 (SN12C): 739 nM
- GI50 (PC-3): 532 nM
- GI50 (DU-145 [12]): 14 nM
- GI50 (MOLT-4): 63.3 nM
- GI50 (HCT-15): 420 nM
- GI50 (UACC-257): 1900 nM
